What was measured:
[1] = system: kinases which phosphorylate acyclovir; assay: Acyclovir phosphorylation (viral thymidine kinase activity) in 4T1 cell extracts; assay type: cell-based, murine; settings: 4T1 cells, 24 hours, 40 μM
Description: The mammalian thymidine kinase (TK) has a narrow specificity and acts only on thymidine. […] The lysates obtained were kept at −70 ° C. until analyzed either spectroscopically or by RT-PCR. […] The ADP is converted to ATP by pyruvate kinase when it hydrolyzes phosphoenolpyruvate (PEP) to pyruvate. Lactate dehydrogenase then converts pyruvate to lactate and NADH to NAD^+. The decrease in fluorescence emitted by NADH (excitation/emission of 320/460 nm) during 10 cycles, each lasting 1 minute, were monitored using a FluoStar fluorometer. The reaction velocity was determined by the slope of the fluorescence vs. time.

HL-60 cells = assay: MTT viability assay, HL-60 leukemic cells; assay type: cell-based, human
Description: (§1) Cells (in quadruplicate) at the specified density were suspended in 200 μL medium supplemented with 10% FCS seeded in 96-well plates for 24 hours, then exposed to the drugs for 72 hours. The viability of the cells was determined by Hoechst fluorescent assay as described by Nudelman et al., 2005. Leukemic cell viability after 72 hours of treatment was determined by an MTT (3-(4,5-dimethylthiazol-2-yl)-2,5-diphenyltetrazolium bromide) assay as described by Levovich et al., 2007.
(§2) IC50 values were determined by linear regression of the percentage of survival following drug titration.

primary rat astrocytes = settings: 50 μM, 24 hours
Description: Brains were removed from neonatal rats, and the cerebral cortex was dissected and minced. The cells were dissociated by vigorous shaking in DMEM supplemented with 20% FCS, and cells from 3 brains were seeded in 20 mL of the medium. After one week, the serum concentration was reduced to 10%.
Cells were seeded in six-well plates (10^5 cells/well) for 24 hours and were then treated as specified, trypsinized, washed with PBS, double-stained with annexin V-FITC (fluorescein isothiocyanate) and propidium iodide, according to the manufacturer's instructions and subjected to flow cytometry analysis (FACScalibur cytometer, Becton Dickinson).

U-251 cells [2] = assay: Reactive oxygen species by DCF-DA FACS, U-251 cells; assay type: cell-based, human; settings: 2 hour treatment
Description: ROS levels were determined by FACS analysis of U-251 cells treated with dichlorodihydrofluorescein diacetate (DCF-DA), which becomes fluorescent when oxidized.

U-251 cells [3] = assay: Cell cycle analysis (propidium iodide flow cytometry), U-251 cells; assay type: cell-based, human
Description: Cells (4×10^5) were seeded in 35 mm culture dishes and after 24 hours were starved in medium without serum for an additional 24 hours, and then treated with the drug for an additional 24 hours. The cells were then trypsinized to a single cell suspension in PBS, washed, and resuspended in PBS at a concentration of 10^6 cells/mL. The cells were fixed with 70% ethanol for 30 minutes at 4° C., centrifuged and resuspended in 1 ml PBS containing 0.1% Tween 20 and 0.05% bovine serum albumin (BSA). RNase free of DNase was added, and the cell suspension (10^6 cells) was incubated at […] for 30 minutes. The cell suspension was then chilled on ice to a temperature in the range of 2 to 8° C. Propidium iodide (50 μg/mL) was added to the cell suspension, which was than kept in the dark. Red fluorescence (>630 nm) was analyzed on the flow cytometer.

U-251 cells [4] = assay: Nitric oxide production assay, U-251 cells; assay type: cell-based, human; settings: 50 μM (mixture 50 μM + 50 μM), 1 hour treatment
Description: U251 cells (5×10^4) were seeded in 24 well plates, and after 24 hours washed and resuspended in PBS. […] Fluorescence was measured with excitation/emission filters of 390/440 nm in a FluoStar fluorimeter. The concentration of nitrate was determined by subtracting the nitrite concentration from the total concentration of nitrite+nitrate.

U-251 cells [5] = assay: Hoechst viability assay, U-251 glioma cells; assay type: cell-based, human
Description: as §1, §2

4T1 cells = assay: Hoechst viability assay, 4T1 breast carcinoma cells (Dox combination); assay type: cell-based, murine; settings: Mus musculus, 72 hours, 3 experiments
Description: as §1, §2
The combination index for drug interaction was calculated by Chou's Median Effect Analysis (MEA) [Chou, 2006]. The combination index (CI) was defined as CI=D1/(DM)1+D2/(DM)2, where D1 and D2 are the doses of drug 1 and drug 2, respectively, (DM)1 and (DM)2 are the doses of drug 1 and drug 2 and their mixture (in a specified ratio) required to produce a median effect, e.g., IC50. CI<1, =1 or >1 indicates synergism, additive effect, and antagonism respectively.

[6] = system: 3LLD122 Lewis lung carcinoma; assay: Metastatic Lewis lung carcinoma (3LL) model; assay type: in vivo, mice; settings: Compound 6 30 mg/kg, Compound 7 25 mg/kg, per os thrice per week, 21 days; p<0.02 vs acyclovir
Description: Female C57/BL mice, 7-10 weeks old, were acclimated for ten days. All in vivo experiments were conducted according to the NIH Laboratory Animal Care Guidelines and in accordance with the guidelines and approval of the Tel Aviv University Committee for Animal Experimentation.
The subclone 3LLD122 of 3LL used in the study was selected for its aggressive and invasive nature. […] The animals were sacrificed after 21 days of treatment, their lungs were weighed, stained with Bouin's fixative and the metastatic lesions were scored double-blindly.

SMILES: CCCC(CCC)C(=O)Nc1nc2c(ncn2COCCOC(=O)C(CCC)CCC)c(=O)[nH]1 [Compound 6, N-valproyl-9-(2-valproyloxy)ethoxymethylguanine]
- rate of acyclovir phosphorylation (kinase activity) [1]: increased the rate of acyclovir phosphorylation in a significant and reproducible manner
- IC50 fold lower than that of VA (HL-60 cells): over 20 fold
- IC50 fold lower than that of the mixture of VA and acyclovir (HL-60 cells; acyclovir:VA 1:2): over 50 fold
- viability of primary culture of astrocytes (primary rat astrocytes): did not affect the viability
- level of oxidation in cells (ROS) (U-251 cells [2]): considerably increased the level of oxidation in cells
- Percentage of cells in G0-G1 stage (U-251 cells [3]; 25 μM, 24 hours): 48.5%
- Percentage of cells in G2-M stage (U-251 cells [3]; 25 μM, 24 hours): 33.9%
- Percentage of cells in S stage (U-251 cells [3]; 25 μM, 24 hours): 17.5%
- Percentage of cells in G0-G1 stage (U-251 cells [3]; 50 μM, 24 hours): 77.1%
- Percentage of cells in G2-M stage (U-251 cells [3]; 50 μM, 24 hours): 13.3%
- Percentage of cells in S stage (U-251 cells [3]; 50 μM, 24 hours): 9.5%
- cell-cycle arresting concentration, fold lower than acyclovir and valproic acid (U-251 cells [3]; 25-50 μM vs 1 mM): at least 20 fold
- phase of cell-cycle arrest (U-251 cells [3]; 25-50 μM, 24 hours): G0-G1 phase
- NO production (U-251 cells [4]): increased NO production in U-251 cells considerably
- activity relative to acyclovir (U-251 cells [5]): > 100 fold
- IC50 (U-251 cells [5]; Homo sapiens, 72 hours, Hoechst, read-out: IC50): 32 ± 2 µM
- IC50 (4T1 cells): 33.7 µM
- number of lung macro-lesions (anti-metastatic activity) [6]: significant anti-metastatic activity
